The supplement of paper PMC10307832

Columns and labels:
Assay in all cases: relative viability (nuclei count vs DMSO), 5 days (fraction); higher = more cells survive
XMD14-99 + Crizotinib = compound: CN1CCN(CC1)C2=CC(=C(C=C2)NC3=NC(=C(S3)C(=O)C4=C(C=CC=C4Cl)Cl)N)OC [XMD14-99] + C[C@@H](Oc1cc(-c2cnn(C3CCNCC3)c2)cnc1N)c1c(Cl)ccc(F)c1Cl [Crizotinib] (partner 1 µM)
Procedure, shortened: (§1)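 Relative viability divides the nuclei count in treated wells by that in vehicle wells. Lung cancer cell lines were seeded in 1536-well plates, dosed by pin tool the next day, and fixed and stained after 5 days in one step with final 0.05% Triton X-100, 1% formaldehyde and 1 ug/ml Hoechst. Dosing was a single drug or a fixed anchor-drug dose plus five library-drug doses (not always all listed) in √10 steps, and values are medians of duplicate plates imaged at 4×.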

XMD14-99 + Bortezomib = compound: CN1CCN(CC1)C2=CC(=C(C=C2)NC3=NC(=C(S3)C(=O)C4=C(C=CC=C4Cl)Cl)N)OC [XMD14-99] + CC(C)C[C@H](NC(=O)[C@H](Cc1ccccc1)NC(=O)c1cnccn1)B(O)O [Bortezomib] (partner 0.002 µM)
Procedure, shortened: as §1

AZD1208 + Bortezomib = compound: N[C@@H]1CCCN(c2c(/C=C3\SC(=O)NC3=O)cccc2-c2ccccc2)C1 [AZD1208] + CC(C)C[C@H](NC(=O)[C@H](Cc1ccccc1)NC(=O)c1cnccn1)B(O)O [Bortezomib] (partner 0.002 µM)
Procedure, shortened: as §1

AZD1208 + AZD7762 = compound: N[C@@H]1CCCN(c2c(/C=C3\SC(=O)NC3=O)cccc2-c2ccccc2)C1 [AZD1208] + NC(=O)Nc1cc(-c2cccc(F)c2)sc1C(=O)N[C@H]1CCCNC1 [AZD7762] (partner 0.2 µM)
Procedure, shortened: as §1

Cell Line | relative viability (XMD14-99 + Crizotinib; first compound 0.08 µM) | relative viability (XMD14-99 + Crizotinib; first compound 0.8 µM) | relative viability (XMD14-99 + Crizotinib; first compound 2.53 µM) | relative viability (XMD14-99 + Crizotinib; first compound 8 µM) | relative viability (XMD14-99 + Bortezomib; first compound 0.08 µM) | relative viability (XMD14-99 + Bortezomib; first compound 0.8 µM) | relative viability (XMD14-99 + Bortezomib; first compound 2.53 µM) | relative viability (XMD14-99 + Bortezomib; first compound 8 µM) | relative viability (AZD1208 + Bortezomib; first compound 0.08 µM) | relative viability (AZD1208 + Bortezomib; first compound 0.253 µM) | relative viability (AZD1208 + Bortezomib; first compound 0.8 µM) | relative viability (AZD1208 + Bortezomib; first compound 2.53 µM) | relative viability (AZD1208 + Bortezomib; first compound 8 µM) | relative viability (AZD1208 + AZD7762; first compound 0.08 µM) | relative viability (AZD1208 + AZD7762; first compound 0.253 µM) | relative viability (AZD1208 + AZD7762; first compound 0.8 µM) | relative viability (AZD1208 + AZD7762; first compound 2.53 µM) | relative viability (AZD1208 + AZD7762; first compound 8 µM)
NCI-H838 | 0.877 | 0.798 | 0.82 | 0.557 | 0.826 | 0.828 | 0.674 | 0.491 | 0.873 | 0.94 | 0.714 | 0.8 | 0.692 | 0.931 | 1.02 | 0.887 | 0.993 | 1.01
NCI-H2126 | 1.01 | 1.02 | 0.979 | 0.937 | 1.16 | 1.08 | 1.08 | 0.946 | 1.1 | 1.14 | 1.09 | 1.07 | 1.1 | 1.03 | 1.08 | 1.02 | 0.996 | 0.928
BEN | 0.789 | 0.718 | 0.761 | 0.647 | 0.88 | 0.901 | 0.924 | 0.531 | 0.796 | 0.763 | 0.495 | 0.636 | 0.475 | 0.749 | 0.578 | 0.562 | 0.503 | 0.478
LCLC-103H | 0.986 | 1.02 | 1.01 | 0.989 | 0.991 | 1.08 | 1.07 | 0.995 | 1.01 | 1.12 | 1.02 | 0.949 | 0.85 | 0.843 | 0.84 | 0.774 | 0.74 | 0.689
EKVX | 0.976 | 0.808 | 0.898 | 0.741 | 0.965 | 0.998 | 0.983 | 0.736 | 1.17 | 1.21 | 1.03 | 1.2 | 1 | 0.76 | 0.801 | 0.674 | 0.719 | 0.606
LXF-289 | 0.814 | 0.802 | 0.814 | 0.712 | 1.04 | 0.978 | 0.945 | 0.841 | 1.04 | 1.1 | 0.999 | 1.07 | 1.15 | 1.13 | 1.27 | 1.19 | 1.22 | 1.38
ABC-1 | 1 | 1.07 | 1.04 | 0.802 | 0.296 | 0.343 | 0.346 | 0.281 | 0.302 | 0.31 | 0.282 | 0.268 | 0.213 | 0.905 | 0.728 | 0.785 | 0.884 | 1.35
NCI-H2087 | 0.773 | 0.896 | 0.632 | 0.463 | 0.85 | 0.705 | 0.709 | 0.45 | 0.827 | 1.01 | 0.846 | 0.941 | 0.909 | 1.29 | 1.45 | 1.35 | 1.46 | 1.32
LC-2-ad | 0.424 | 0.461 | 0.478 | 0.414 | 0.993 | 0.978 | 1 | 0.732 | 1.01 | 0.979 | 0.978 | 0.819 | 0.833 | 0.842 | 0.888 | 0.798 | 0.804 | 0.897
NCI-H1355 | 1.15 | 1.11 | 0.949 | 0.879 | 1.31 | 1.2 | 1.15 | 0.898 | 1.29 | 1.09 | 1.15 | 1.2 | 1.04 | 0.75 | 0.836 | 0.686 | 0.732 | 0.628
H3255 | 0.831 | 0.64 | 0.757 | 0.597 | 0.729 | 0.895 | 0.532 | 0.297 | 0.874 | 0.758 | 0.667 | 0.968 | 0.718 | 1.01 | 0.992 | 0.898 | 0.912 | 0.845
NCI-H1734 | 0.634 | 0.713 | 0.618 | 0.638 | 0.873 | 0.847 | 0.822 | 0.707 | 0.831 | 1.05 | 0.811 | 0.991 | 0.611 | 0.499 | 0.543 | 0.469 | 0.465 | 0.425
HOP-62 | 1.06 | 0.942 | 0.883 | 0.663 | 0.604 | 0.694 | 0.863 | 0.605 | 0.827 | 1.06 | 0.724 | 0.598 | 0.507 | 0.859 | 0.794 | 0.612 | 0.66 | 0.824
LOU-NH91 | 0.789 | 0.743 | 0.717 | 0.698 | 0.498 | 0.416 | 0.451 | 0.447 | 0.539 | 0.516 | 0.564 | 0.504 | 0.593 | 0.74 | 0.714 | 0.71 | 0.684 | 0.667
ChaGo-K-1 | 1.1 | 1.14 | 1.19 | 0.92 | 1.06 | 1.02 | 0.964 | 0.92 | 1.21 | 0.983 | 1.04 | 0.975 | 0.92 | 0.849 | 0.931 | 0.813 | 0.952 | 0.776
NCI-H23 | 0.45 | 0.447 | 0.461 | 0.351 | 0.95 | 0.908 | 1.12 | 0.728 | 1.01 | 1.07 | 0.926 | 1.14 | 0.634 | 0.245 | 0.251 | 0.243 | 0.228 | 0.29
